Patent US20190200664A1, “WATER AND FAT SOLUBLE MICRONUTIENT STABILIZED PARTICLES” (Massachusetts Institute of Technology, priority 2018, published 2019)

Test: Iron oxidation (ferrous to ferric) during boiling in water in an open container
Assay type: physicochemical
Details: 2 hours
Procedure: Dry micronutrient-loaded MPs were dispersed in water and then heated at 100° C. for 2 hours before being centrifuged at 4000 rpm for 5 min. Chemically stable MNs in both the supernatant and the MPs were quantified using the methods as described above. The stability percentage equals to the ratio of stable MN after heating as determined by HPLC to the actual loading content of the MN in the MPs. For samples in non-encapsulated form, they were either dissolved in water (water soluble vitamins such as vitamins B9 and B12) or dispersed in water (fat soluble vitamins such as vitamins A and D) before being heated for 2 hrs. Iron-loaded HA-EPO-MPs were dispersed in water and then heated at 100° C. for 2 hours and analyzed for ferrous and ferric content as described above.
It was investigated how iron encapsulation in HA-EPO-MPs impacts oxidation during boiling in water in an open container, since both higher temperatures and atmospheric exposure will accelerate iron oxidation. For encapsulated iron, less than 2% oxidizes to ferric iron, and for non-encapsulated iron over 15% is oxidized to ferric iron (FIG. 4D).

## ferrous sulfate [Non-Encapsulated Fe]
  iron oxidized to ferric iron: over 15%
